Data reported in publication PMC7711741 (Journal of medicinal chemistry, 2015).

Legend:
murine uPA = murine uPA (Mus musculus, UniProt P06869); test: Ki determination, chromogenic substrate S-2444; assay type: biochemical; settings: for fold increase in Ki for muPA: versus peptide 2
huPA-H99Y = test: Ki determination, chromogenic substrate S-2444; assay type: biochemical, human; settings: versus peptide 2
human PK = human PK (Homo sapiens, UniProt P03952); test: Ki determination, chromogenic substrate S-2302; assay type: biochemical; settings: versus mupain-1–16
human PK, sequence (P03952 20-638): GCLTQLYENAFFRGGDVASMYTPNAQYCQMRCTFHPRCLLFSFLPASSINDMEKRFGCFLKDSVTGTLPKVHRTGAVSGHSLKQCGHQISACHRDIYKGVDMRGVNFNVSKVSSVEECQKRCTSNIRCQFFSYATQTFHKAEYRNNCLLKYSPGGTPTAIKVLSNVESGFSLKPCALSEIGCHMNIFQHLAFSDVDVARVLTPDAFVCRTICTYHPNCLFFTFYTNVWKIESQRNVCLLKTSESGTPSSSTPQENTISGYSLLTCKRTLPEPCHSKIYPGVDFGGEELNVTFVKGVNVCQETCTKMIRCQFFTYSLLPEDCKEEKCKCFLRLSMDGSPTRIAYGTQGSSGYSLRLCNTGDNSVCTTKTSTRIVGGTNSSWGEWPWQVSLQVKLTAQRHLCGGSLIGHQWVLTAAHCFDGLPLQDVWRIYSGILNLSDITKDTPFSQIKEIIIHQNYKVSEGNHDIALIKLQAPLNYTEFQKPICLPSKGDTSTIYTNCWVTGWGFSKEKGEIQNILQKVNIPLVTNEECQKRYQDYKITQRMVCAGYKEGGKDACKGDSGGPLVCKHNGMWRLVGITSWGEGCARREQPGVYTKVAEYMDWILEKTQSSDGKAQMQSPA

murine uPA, sequence (P06869 21-433): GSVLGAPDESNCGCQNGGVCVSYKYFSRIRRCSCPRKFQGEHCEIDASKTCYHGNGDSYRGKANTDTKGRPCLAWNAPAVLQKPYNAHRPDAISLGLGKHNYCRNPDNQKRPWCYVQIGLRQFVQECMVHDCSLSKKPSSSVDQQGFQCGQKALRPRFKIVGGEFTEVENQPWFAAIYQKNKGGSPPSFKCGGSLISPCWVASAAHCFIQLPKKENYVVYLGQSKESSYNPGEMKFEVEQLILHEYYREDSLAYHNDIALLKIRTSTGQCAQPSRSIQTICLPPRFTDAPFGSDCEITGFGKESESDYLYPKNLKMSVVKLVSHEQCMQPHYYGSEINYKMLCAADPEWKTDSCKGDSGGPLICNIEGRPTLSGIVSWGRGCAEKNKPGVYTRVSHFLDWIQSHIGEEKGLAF

| Substance | fold weakened affinity to muPA (murine uPA; versus peptide 1) | fold increase in Ki for muPA (murine uPA) | fold increase in Ki for huPA-H99Y (huPA-H99Y) | fold lower Ki for inhibition of hPK (human PK) |
| --- | --- | --- | --- | --- |
| CPAYS[L-3-(N-amidino-4-piperidyl)alanine]AL[KAc]C [peptide 2] | about 10 fold |  |  |  |
| CPARS[L-3-(N-amidino-4-piperidyl)alanine]AL[KAc]C [peptide 3] |  | 100 fold | 100 fold |  |
| CPAYS[L-3-(N-amidino-4-piperidyl)alanine]-ALDC [peptide 1] |  |  |  | 10 fold |
| CPAKS[L-3-(N-amidino-4-piperidyl)alanine]AL[KAc]C [peptide 4] |  | 100 fold | 100 fold |  |
